Here are results for six compounds from US20110230481A2, “DERIVATIVES OF TETRABROMOBENZIMIDAZOLE, A PROCESS FOR THE PREPARATION THEREOF, A PHARMACEUTICAL COMPOSITION COMPRISING THE SAME, A METHOD OF USING THE SAME, A METHOD FOR MODULATING OR REGULATING SERINE/THREONINE KINASES, AND SERINE/THREONINE KINASES MODULATING AGENT” (SELVITA S.A., priority 2009, published 2011).

pIC50: −log10 of the molar value. Values after ≈ are worked out from the molar mass of the structure shown. Some results are limits rather than exact numbers.

The test system of data set [1] is human acute lymphocytic leukemia E6.1 Jurkat cells. Briefly: Growth inhibition test (MTS). It is filed as cell-based. Particulars: Homo sapiens, 72 hours, read-out: Cytotoxicity in MTS assay (ED50). On the procedure:
(§1) Twenty thousand cells of human acute lumphocytic leukemia E6.1 Jurkat were inoculated into each well of a 96-well microplate (manufactured by Corning Corp.) using RPMI 8226 medium (culture medium) containing 10% fetal calf serum (FCS). The same day, a dimethyl sulfoxide (DMSO) solution of each test compound prepared in a concentration of 10 mmol/L was further diluted with DMSO to the desired concentrations (0.1, 0.5, 1, 2.5, 5 and 10 micromol/L), and the diluted solution was added to each well. The individual wells were further cultured in 5% carbon dioxide at 37° C. for 72 hours. After completion of the culture, 10 μl MTS (3-(4,5-Dimethyl-2-thiazolyl)-5-(carboxymethoxyphenyl)-2-(4-sulfophenyl)-2H-tetrazolium, inner salt assay (CellTiter96® AQueous One Solution Cell Proliferation Assay, Promega) was added to each well, and culturing was performed in 5% carbon dioxide at 37° C. for 2 hours. Using a microplate spectrophotometer (Synergy 2 multi-mode microplate reader (BioTek)), the absorbance of each well was measured at 490 nm. The value for cells not incorporated with a test compound was designated as 100%. By comparing these values with the absorbance difference obtained at the well in which each test compound was added, the cell viability (% viability) after treatment with the test compound was calculated.
(Tetrazolium dyes change colour on reduction, which living cells bring about.)

The target in data set [2] is PIM3 (Homo sapiens, UniProt Q86V86). Kind of data set: Radiometric kinase assay (HotSpot). The following applies: for Selectivity for Pim-3 over CK2α: ratio of IC50 values.
Experimental: (§2) Kinase assays were performed at Reaction Biology Corporation (www.reactionbiology.com, Malvern Pa.) using the “HotSpot” assay platform. This assay platform is based on a radiometric filtration binding assay and is considered as the “gold standard” to which non-radiometric methods are compared. In this assay format, the kinase reaction is performed in the presence of 32 P-γ-ATP or 33 P-γ-ATP, followed by binding of the final radioisotope labeled peptide product to filters after which unreacted phosphate is washed away and the levels of phosphorylated peptide are measured.
The target in data set [3] is CK2α (Homo sapiens, UniProt P68400). Kind of data set: Radiometric kinase assay (HotSpot).
Sequence of CK2α (P68400 whole entry): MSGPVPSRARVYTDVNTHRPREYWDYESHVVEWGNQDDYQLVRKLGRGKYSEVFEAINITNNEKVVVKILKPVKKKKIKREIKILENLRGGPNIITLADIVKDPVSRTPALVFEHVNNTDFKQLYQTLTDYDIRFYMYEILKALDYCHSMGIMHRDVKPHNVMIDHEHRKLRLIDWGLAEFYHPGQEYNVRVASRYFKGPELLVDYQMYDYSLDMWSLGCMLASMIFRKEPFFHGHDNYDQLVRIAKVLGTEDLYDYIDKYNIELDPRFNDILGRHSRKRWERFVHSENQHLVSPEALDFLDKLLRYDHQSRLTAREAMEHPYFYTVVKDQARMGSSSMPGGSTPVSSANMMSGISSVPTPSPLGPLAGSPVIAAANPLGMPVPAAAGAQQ
Experimental: as §2
Data set [4] concerns human myelomonocytic, biphenotypic leukemia MV4-11 cells. Kind of data set: Growth inhibition test (MTS). The format is cell-based. The following applies: Homo sapiens, MV4-11; MV-4-11; 72 hours; read-out: Cytotoxicity in MTS assay (ED50). As for the experimental part:
as §1, with “Ten” for “Twenty”, “myelomonocytic, biphenotypic” for “acute lumphocytic”, “MV4-11” for “E6.1 Jurkat”, “Iscove's MDM” for “RPMI 8226”

Data set [5] deals with PIM2 (Homo sapiens, UniProt Q9P1W9). Briefly: Radiometric kinase assay (HotSpot). The following applies: for Selectivity for Pim-2 over CK2α: ratio of IC50 values.
Sequence of PIM2 (Q9P1W9 whole entry): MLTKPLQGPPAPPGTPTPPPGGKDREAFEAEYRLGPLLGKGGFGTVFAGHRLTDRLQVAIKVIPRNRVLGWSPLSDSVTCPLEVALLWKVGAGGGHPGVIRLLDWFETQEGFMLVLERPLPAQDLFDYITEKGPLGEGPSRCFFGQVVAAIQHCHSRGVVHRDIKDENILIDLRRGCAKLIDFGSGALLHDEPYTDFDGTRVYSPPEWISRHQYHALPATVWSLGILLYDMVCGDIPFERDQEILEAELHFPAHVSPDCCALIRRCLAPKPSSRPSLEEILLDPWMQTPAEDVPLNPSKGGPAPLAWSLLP
Experimental: as §2
The target of data set [6] is PIM1 (Homo sapiens, UniProt P11309). Kind of data set: Radiometric kinase assay (HotSpot). The following applies: for Selectivity for Pim-1 over CK2α: ratio of IC50 values.
Sequence of PIM1 (P11309 whole entry): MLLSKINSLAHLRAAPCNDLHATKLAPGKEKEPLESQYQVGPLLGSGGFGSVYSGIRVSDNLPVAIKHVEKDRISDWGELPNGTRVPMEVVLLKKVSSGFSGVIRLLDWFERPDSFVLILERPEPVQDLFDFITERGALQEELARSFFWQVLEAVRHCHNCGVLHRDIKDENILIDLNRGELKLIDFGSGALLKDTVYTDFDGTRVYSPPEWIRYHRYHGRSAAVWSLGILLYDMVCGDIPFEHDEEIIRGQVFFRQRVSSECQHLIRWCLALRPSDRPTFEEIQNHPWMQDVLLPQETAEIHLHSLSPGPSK
Experimental: as §2
For data set [7], the system named is human acute myeloid leukemia MOLM-13 cells. Briefly: Growth inhibition test (MTS). The following applies: Homo sapiens, MOLM-13; MOLM13; 72 hours; read-out: Cytotoxicity in MTS assay (ED50). The format is cell-based. On the procedure: as §1, with “Ten” for “Twenty”, “of” for “of human”, “myeloid” for “lumphocytic”, “MOLM-13” for “E6.1 Jurkat”
The test system of data set [8] is human prostate carcinoma DU145 cells. Briefly: Growth inhibition test (MTS). It is filed as cell-based. The following applies: 72 hours. On the procedure:
as §1, with “Two” for “Twenty”, “prostate carcinoma DU145” for “acute lumphocytic leukemia E6.1 Jurkat”, “Corp.), and” for “Corp.)”, “DMEM” for “RPMI 8226”, “innersalt” for “inner salt”

Data set [9] concerns human prostate adenocarcinoma PC3 cells. Kind of data set: Growth inhibition test (MTS). The format is cell-based. Particulars: PC-3; 72 hours. As for the experimental part:
as §1, with “Two” for “Twenty”, “prostate adenocarcinoma PC3” for “acute lumphocytic leukemia E6.1 Jurkat”, “Corp.), and” for “Corp.)”, “F12K (Ham's F12:[…]” for “RPMI”, “[…] 1:1)” for “8226”

Data set [10] in a line: Solubility in pH 7.4. Particulars: phosphate buffer.
Experimental: Compound stock solutions were prepared in DMSO to final concentrations of 1000 mM. For each compound studied, 12 solutions were prepared to cover concentrations from 0.001 to 1 mM. As a solvent 0.2 mM phosphate buffer (pH 7.4) was used. The final concentration of DMSO in the solutions was 1% (v/v). The solutions were left mixing for 24 hours at 37° C., 350 rpm and following incubation centrifuged for 5 minutes at 14500 rpm. The samples were then analyzed by RP HPLC using a C18 column and 0.2% solution of formic acid in water/acetonitrile mobile phase. […] The solubility was determined as the point as the point at which the concentration curve reaches plateau.

Turning to `NCCCCNc1nc2c(Br)c(Br)c(Br)c(Br)c2[nH]1` [Compound 61, N-(4-aminobutyl)-4,5,6,7-tetrabromo-1H-benzo[d]imidazol-2-amine], the pIC50 in [1] was 5.10; in [2] it was 7.69; in data set [3], 6.41; in data set [4], 5.35; in data set [5] it was 6.70; in data set [6] it was 8.28. Also, the pIC50 in data set [7] was 5.23. In addition, the “Selectivity for Pim-3 over CK2α” value in [2] is 19.1. Further, in [5], the “Selectivity for Pim-2 over CK2α” value came out at 1.9. In addition, the “Selectivity for Pim-1 over CK2α” value in [6] was 74.2.
On to `Brc1c(Br)c(Br)c2[nH]c(Nc3ccccc3)nc2c1Br` [Compound 79, 4,5,6,7-tetrabromo-N-phenyl-1H-benzo[d]imidazol-2-amine], for which the pIC50 in [1] is 5.04; in data set [2], 5.53; in data set [3], 5.71; in data set [4], 5.36; in data set [5], less than 4.70; in data set [6], 5.82. For the same compound, the pIC50 in [7] is 5.22. Also, the “Selectivity for Pim-3 over CK2α” value in [2] was 0.7. Moreover, the “Selectivity for Pim-1 over CK2α” value in data set [6] came out at 1.3.
For `Brc1c(Br)c(Br)c2[nH]c(NCCCN3CCCCC3)nc2c1Br` [Compound 59, 4,5,6,7-tetrabromo-N-(3-(piperidin-1-yl)propyl)-1H-benzo[d]imidazol-2-amine], the pIC50 in data set [1] was 5.36; in data set [2] it was 6.72; in data set [3], 6.07; in data set [4], 5.55; in [5], 5.83; in data set [6], 7.06. For the same compound, the pIC50 in data set [7] was 5.45. For the same compound, the “Selectivity for Pim-3 over CK2α” value in [2] is 4.5. In [5], the “Selectivity for Pim-2 over CK2α” value amounted to 0.6. In data set [6], the “Selectivity for Pim-1 over CK2α” value is listed as 9.7.
Take `Brc1c(Br)c(Br)c2[nH]c(NCCCn3ccnc3)nc2c1Br` [Compound 65, N-(3-(1H-imidazol-1-yl)propyl)-4,5,6,7-tetrabromo-1H-benzo[d]imidazol-2-amine]: the pIC50 in [1] was less than 5.00; in data set [2] it was 7.80; in data set [3] it was 6.35; in data set [4], less than 5.00; in data set [5] it was 6.08; in [6], 7.06. Moreover, the pIC50 in [7] was 5.16. In data set [2], the “Selectivity for Pim-3 over CK2α” value turned out to be 28.3. Also, the “Cytotoxicity in MTS assay (ED50)” value in data set [8] was 7720 nM; in data set [9], more than 10000 nM. Also, in [5], the “Selectivity for Pim-2 over CK2α” value is listed as 0.5. Also, in data set [6], the “Selectivity for Pim-1 over CK2α” value worked out at 5.1.
For `Nc1ccc(Nc2nc3c(Br)c(Br)c(Br)c(Br)c3[nH]2)cc1` [Compound 86, N1-(4,5,6,7-tetrabromo-1H-benzo[d]imidazol-2-yl)benzene-1,4-diamine], the pIC50 was 5.08 in [1]; 6.17 in [2]; 6.13 in data set [3]; 5.24 in data set [4]; 5.81 in [5]; 6.26 in [6]. In addition, in data set [7], the pIC50 was 5.06. For the same compound, the “Selectivity for Pim-3 over CK2α” value in data set [2] was determined as 1.1. In addition, in data set [5], the “Selectivity for Pim-2 over CK2α” value worked out at 0.5. For the same compound, the “Selectivity for Pim-1 over CK2α” value in [6] was determined as 1.3.
One may read the solubility as how much of the substance goes into solution per volume. In the case of `NCC(O)CNc1nc2c(Br)c(Br)c(Br)c(Br)c2[nH]1` (centres unmarked) [Compound 90, 1-(4,5,6,7-tetrabromo-1H-benzo[d]imidazol-2-ylamino)-3-aminopropan-2-ol], the pIC50 in [1] was 5.24; in data set [2], 8.12; in data set [3], 6.96; in [4] it was 5.67; in data set [5], 7.04; in data set [6] it was 8.04. For the same compound, the pIC50 in [7] is 5.16. In addition, the “Selectivity for Pim-3 over CK2α” value in data set [2] is 14.4. Also, in [5], the “Selectivity for Pim-2 over CK2α” value amounted to 1.2. For the same compound, in [10], the solubility at 24 h is 72 µM (≈ 37.6 µg/mL). In addition, the “Selectivity for Pim-1 over CK2α” value in [6] came to 12.0.
